Results reported in patent US20220194911A1, “NOVEL COMPOUND FOR INHIBITING HISTONE ACETYLTRANSFERASE P300 AND ANTIFIBROTIC COMPOSITION COMPRISING SAME” (REFURE LIFE SCIENCE INC., priority 2019, published 2022).

Molecular target: HAT p300 (histone acetyltransferase p300) (Homo sapiens, UniProt Q09472)
Assay: HAT activity kit assay (Biovision K332), inhibition of HAT activity of p300
Type: biochemical
Conditions: for HAT p300 activity inhibitory effect: diluted to 100 μM, FIG. 9
Procedure: Candidates 1 to 67, which are HAT inhibitors manufactured based on the PCAF structure, and HAT-24, HAT-26, and HAT-28 were diluted to 100 μM, and the degree of inhibition of HAT activity of p300 (inhibitory activity) was then determined using a kit for measuring HAT activity (Biovision, Cat No. K332, U.S.A) according to the method provided by the manufacturer. Here, the tissue was treated with C646 (HAT inhibitor) as a positive control.
Candidates 1 to 14 having a good HAT activity inhibitory effect in Section were diluted to concentrations of 0.5 μM, 1 μM, 10 μM, and 100 μM. Thereafter, the degree of inhibition of HAT activity was determined in the same manner as in Section.
Synthesis Examples 1 to 19 were diluted to 100 μM, and the degree of inhibition of HAT p300 activity was then determined in the same manner as in Section. Here, the tissues were treated with C646 and Candidate 12 (HAT-12) as the control, instead of Synthesis Examples 1 to 19.

Chain of HAT p300 (histone acetyltransferase p300) (Q09472 whole entry): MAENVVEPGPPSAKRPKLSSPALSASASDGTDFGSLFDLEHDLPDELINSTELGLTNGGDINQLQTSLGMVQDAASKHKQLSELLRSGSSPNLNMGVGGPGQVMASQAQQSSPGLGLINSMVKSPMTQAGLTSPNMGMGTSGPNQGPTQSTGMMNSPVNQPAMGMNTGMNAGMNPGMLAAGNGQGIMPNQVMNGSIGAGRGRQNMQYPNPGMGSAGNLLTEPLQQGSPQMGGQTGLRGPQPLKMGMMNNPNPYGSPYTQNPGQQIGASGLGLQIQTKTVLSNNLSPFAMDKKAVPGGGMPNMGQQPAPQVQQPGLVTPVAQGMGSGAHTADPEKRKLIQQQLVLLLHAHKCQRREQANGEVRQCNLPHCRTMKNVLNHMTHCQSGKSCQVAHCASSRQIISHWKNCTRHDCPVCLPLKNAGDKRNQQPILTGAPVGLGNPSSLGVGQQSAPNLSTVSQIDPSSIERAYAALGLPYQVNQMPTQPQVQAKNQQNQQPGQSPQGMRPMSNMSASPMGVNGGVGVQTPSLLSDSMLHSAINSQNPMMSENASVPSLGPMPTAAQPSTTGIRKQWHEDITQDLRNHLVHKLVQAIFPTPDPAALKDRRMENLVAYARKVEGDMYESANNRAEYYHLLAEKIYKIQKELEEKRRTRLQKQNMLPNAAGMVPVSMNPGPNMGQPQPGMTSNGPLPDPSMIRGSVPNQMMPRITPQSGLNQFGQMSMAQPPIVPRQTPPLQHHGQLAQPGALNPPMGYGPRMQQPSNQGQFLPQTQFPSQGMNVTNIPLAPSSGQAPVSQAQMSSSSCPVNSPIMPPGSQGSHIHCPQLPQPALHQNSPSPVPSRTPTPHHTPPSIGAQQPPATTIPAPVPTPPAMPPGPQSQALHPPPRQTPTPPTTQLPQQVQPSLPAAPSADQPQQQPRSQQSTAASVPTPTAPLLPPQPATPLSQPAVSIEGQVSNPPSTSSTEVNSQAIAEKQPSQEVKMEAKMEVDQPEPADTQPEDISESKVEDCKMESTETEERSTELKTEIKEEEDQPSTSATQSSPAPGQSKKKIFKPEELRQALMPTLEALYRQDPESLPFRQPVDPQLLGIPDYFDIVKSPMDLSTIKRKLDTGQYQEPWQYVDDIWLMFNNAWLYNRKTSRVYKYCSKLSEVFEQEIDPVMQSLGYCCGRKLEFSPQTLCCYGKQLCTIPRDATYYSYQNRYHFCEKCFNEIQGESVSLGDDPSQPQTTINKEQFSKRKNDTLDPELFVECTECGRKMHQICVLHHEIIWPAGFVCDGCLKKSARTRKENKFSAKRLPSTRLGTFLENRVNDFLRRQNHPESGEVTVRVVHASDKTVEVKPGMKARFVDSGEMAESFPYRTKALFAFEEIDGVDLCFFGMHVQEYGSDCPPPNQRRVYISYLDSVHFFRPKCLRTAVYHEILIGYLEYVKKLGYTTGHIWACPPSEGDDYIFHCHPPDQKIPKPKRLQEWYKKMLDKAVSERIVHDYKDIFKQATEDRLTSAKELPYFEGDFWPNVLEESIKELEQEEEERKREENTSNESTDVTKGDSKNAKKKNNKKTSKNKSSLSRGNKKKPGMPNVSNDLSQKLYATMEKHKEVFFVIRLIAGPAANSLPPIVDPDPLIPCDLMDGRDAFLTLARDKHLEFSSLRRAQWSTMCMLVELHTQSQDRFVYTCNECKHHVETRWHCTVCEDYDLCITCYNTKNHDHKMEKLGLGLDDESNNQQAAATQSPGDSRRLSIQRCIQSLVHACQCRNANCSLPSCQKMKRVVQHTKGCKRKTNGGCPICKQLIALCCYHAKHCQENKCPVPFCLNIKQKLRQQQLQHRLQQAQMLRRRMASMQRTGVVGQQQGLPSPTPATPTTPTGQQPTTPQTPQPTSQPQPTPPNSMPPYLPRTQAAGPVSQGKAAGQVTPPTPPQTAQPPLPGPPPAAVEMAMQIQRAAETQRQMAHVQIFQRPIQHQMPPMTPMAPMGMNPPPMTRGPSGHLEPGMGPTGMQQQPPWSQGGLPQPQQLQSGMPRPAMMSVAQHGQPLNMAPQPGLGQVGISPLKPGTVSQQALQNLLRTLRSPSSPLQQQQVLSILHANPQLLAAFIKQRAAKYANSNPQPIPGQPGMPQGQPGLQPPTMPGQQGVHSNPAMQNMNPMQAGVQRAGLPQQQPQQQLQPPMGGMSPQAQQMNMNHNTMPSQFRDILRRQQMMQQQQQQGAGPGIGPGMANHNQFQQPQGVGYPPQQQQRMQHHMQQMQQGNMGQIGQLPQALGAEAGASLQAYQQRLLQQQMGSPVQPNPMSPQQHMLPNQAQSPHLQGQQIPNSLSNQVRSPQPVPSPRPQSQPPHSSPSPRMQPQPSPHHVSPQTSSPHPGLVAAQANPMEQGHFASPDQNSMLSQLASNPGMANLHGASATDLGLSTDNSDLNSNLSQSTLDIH

Row | HAT p300 activity inhibitory effect | IC50 (secondary screening, tested at 0.5, 1, 10 and 100 μM) | Compound
1 | approximately 80% | 0.953 µM | COc1cc(/C=N/CCN2CCCCC2)cc(Cl)c1OCc1cccc(Cl)c1 [Candidate 12]
2 | ≥ 90% |  | COc1cc(/C=N/Cc2ccc(C(=O)O)cc2)cc(Cl)c1OCc1cccc(Cl)c1 [Synthesis Example 19, (E)-4-(((3-chloro-4-((3-chlorobenzyl)oxy)-5-methoxybenzylidene)amino)methyl)benzoic acid]
